One may read the IC50 as the midpoint of a concentration-inhibition curve.

The target in assay [1] is human recombinant IRAK4 protein (Homo sapiens (Human), UniProt Q9NWZ3). The assay is described as follows: IRAK4 enzyme assay (mass spectrometry readout). Format: biochemical. The following applies: 3 mM ATP, 0.2 nM enzyme; geometric mean of at least n=2, * single experiment. Here is the method: Potency of IRAK4 Inhibitor Compounds in IRAK4 Enzyme Assay
The inhibitory activity of compounds against IRAK4 were determined in an enzymatic assay using mass spectrometry readout. Ten point half-log compound concentration response curves, with a top concentration of 1 μM or 10 μM, were generated from 10 mM stocks of compound solubilized in DMSO using an Echo 655 (Labcyte Inc) and added to 384 well assay plates (Greiner #781280). To the assay plates, 10 μL of human recombinant IRAK4 protein (Life Technologies #PV4002) diluted to a final concentration of 0.2 nM in assay buffer (50 mM Tris-HCl pH 7.4, 10 mM MgCl, 5 mM glutathione, 0.01% BSA, 3 mM ATP) was added. The enzyme was incubated with the compounds at room temperature for 15 minutes before a peptide substrate ([…], Innovagen custom synthesis, 10 mM in DMSO) was added to each well to a final concentration of 10 μM using an Echo 655 (Labcyte Inc). After two hours at room temperature, the reaction was stopped with 90 μL of 0.4% formic acid (Merck #33015). The unphosphorylated and phosphorylated peptide were measured by LC-MS/MS on a Waters TQ-S mass spectrometer. Peaks were integrated using the TargetLynx software and the ratios between phosphorylated and unphosphorylated peptides were calculated. Curves were fitted and compound potencies determined in Genedata Screener 15 (Genedata AG). Data presented are the geometric mean of at least n=2, or as denoted by an * are obtained from a single experiment.

Assay [2] concerns the target IRAK4 auto-phosphorylation (Homo sapiens (Human), UniProt Q9NWZ3). The experiment in a line: IRAK4 phosphorylation cell assay in IL-1β-stimulated Karpas-299 cells. The following applies: IL-1β 22.7 ng/mL, pIRAK4 (Thr345/Ser346), geometric mean of at least 2 experiments. In kind it is cell-based. The procedure:
IRAK4 Phosphorylation Cell Assay
The activation of IRAK4 by TLR or IL-1R ligands leads to IRAK4 auto-phosphorylation, which can be prevented by IRAK4 kinase inhibitors. The effect of IRAK4 inhibitor compounds on IRAK4 auto-phosphorylation was assessed in IL-1β-stimulated Karpas-299 cells as a measurement of cellular potency. Karpas-299 cells were cultured in RPMI 1640 (Gibco 61870-010) containing 10% FBS (Gibco #10270). Cells were plated at 2×10^4 cells per well in poly-D-lysine coated 384 well plates (Corning #356663) to which compounds had been added at various concentrations (10 point half log dose response with a final top concentration of 30 μM) using an Echo 655 (Labcyte Inc). Cells were centrifuged (250 g, 4 mins), incubated at 37° C. for 1 h, then stimulated with 22.7 ng/mL recombinant IL-1β (R&D Systems, #201-LB-025) at 37° C. for 10 mins, followed by fixation in 4% paraformaldehyde for 10 mins and permeabilization in ice-cold 70% MeOH for 30 mins. Cells were washed twice with phosphate-buffered saline (PBS) on a BlueWasher (BlueCatBio) then blocked with PBS containing 10% FBS for 20 mins. Blocking solution was removed with a BlueWasher and cells were stained with anti-pIRAK4 (Thr345/Ser346) (CST, #11927, 1:400) in blocking buffer with 0.05% Tween-20 for 1 h, then washed twice with PBS containing 0.05% Tween-20 on a BlueWasher, followed by staining with a Alexa 647-conjugated secondary anti-rabbit IgG antibody (CST, #4414, 1:2,000) and Hoechst 33342 (Sigma, 1:2,000) in blocking buffer with 0.05% Tween-20 for 30 mins. Finally, the cells were washed twice with PBS containing 0.05% Tween-20 and imaged on an ImageXpress Micro (Molecular Devices) with a 10× air objective using the appropriate filters. Images were analysed in Columbus (PerkinElmer) and the fluorescence intensity per cell from the secondary antibody was quantified. The quantified data were analysed in Genedata Screener 15 (Genedata AG). […] IC50 values are the geometric mean of at least 2 experiments.

IRAK4 auto-phosphorylation, sequence (Q9NWZ3 whole entry): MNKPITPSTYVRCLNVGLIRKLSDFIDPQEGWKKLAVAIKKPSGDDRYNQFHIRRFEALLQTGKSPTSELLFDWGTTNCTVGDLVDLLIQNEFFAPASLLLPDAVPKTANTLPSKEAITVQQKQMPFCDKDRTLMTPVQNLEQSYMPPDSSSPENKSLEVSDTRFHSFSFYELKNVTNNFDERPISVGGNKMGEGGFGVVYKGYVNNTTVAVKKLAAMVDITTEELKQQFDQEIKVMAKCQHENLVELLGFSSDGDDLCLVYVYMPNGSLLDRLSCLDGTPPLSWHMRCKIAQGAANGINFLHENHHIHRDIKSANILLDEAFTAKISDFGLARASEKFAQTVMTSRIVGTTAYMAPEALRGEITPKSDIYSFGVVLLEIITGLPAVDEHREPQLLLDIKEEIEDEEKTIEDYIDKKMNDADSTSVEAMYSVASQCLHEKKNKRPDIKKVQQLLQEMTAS
human recombinant IRAK4 protein, sequence (Q9NWZ3 whole entry): as above

Consider `COc1cc2nn(C3CCC4(CC3)COCC(=O)N4C)cc2cc1C(=O)Nc1cnn2cccnc12` (single isomer, unassigned) [Example 118, 6-Methoxy-2-(1-methyl-2-oxo-4-oxa-1-azaspiro[5.5]undecan-9-yl)-N-(pyrazolo[1,5-a]pyrimidin-3-yl)-2H-indazole-5-carboxamide], for which the IC50 in assay [1] was found to be 13.9 nM; in assay [2] it was 199 nM.

Turning to `CC1(O)CC2(CCC(n3cc4cc(C(=O)Nc5cnn6cccnc56)c(OC5CC5)cc4n3)CC2)C1` (single isomer, unassigned) [Example 15, 6-Cyclopropoxy-2-(2-hydroxy-2-methylspiro[3.5]nonan-7-yl)-N-(pyrazolo[1,5-a]pyrimidin-3-yl)-2H-indazole-5-carboxamide], the results for the IC50 in assay [1] and in assay [2] were 0.5 nM and 91 nM, respectively.

With `COc1cc2nn([C@H]3CCC[C@@](C)(O)C3)cc2cc1C(=O)Nc1cnn2cccnc12` (single isomer, unassigned) [Example 51], the IC50 in assay [1] turned out to be 2.8 nM; in assay [2] it was 46 nM.

Regarding `O=C(Nc1cnn2cccnc12)c1cc2cn(C3CCC4(CC3)CC(O)C4)nc2cc1OC1CC1` (single isomer, unassigned) [Example 46, 6-Cyclopropoxy-2-(2-hydroxyspiro[3.5]nonan-7-yl)-N-(pyrazolo[1,5-a]pyrimidin-3-yl)-2H-indazole-5-carboxamide], the IC50 was 0.6 nM in assay [1] and 56 nM in assay [2].

For `COc1cc2nn([C@@H]3CCC(N(C)C(C)=O)C[C@H]3C)cc2cc1C(=O)Nc1cnn2cccnc12` (single isomer, unassigned) [Example 61], the results for the IC50 in assay [1] and in assay [2] were 24.2 nM and 238 nM, respectively.

As for `COc1cc2nn(C3CCC(C)(O)CC3)cc2cc1C(=O)Nc1cnc2cccnn12` (single isomer, unassigned) [Example 48, 2-(4-Hydroxy-4-methylcyclohexyl)-N-(imidazo[1,2-b]pyridazin-3-yl)-6-methoxy-2H-indazole-5-carboxamide], the 50% inhibitory concentration (IC50) in assay [1] is 0.7 nM; in assay [2], 17 nM.

Consider “6-Cyclopropoxy-2-((1s,4s)-4-(N-methylacetamido)cyclohexyl)-N-(pyrazolo[1,5-a]pyrimidin-3-yl)-2H-indazole-5-carboxamide [Example 32]”, for which the results for the half-maximal inhibitory concentration (IC50) in assay [1] and in assay [2] were 10.6 nM and 257 nM, respectively.

Turning to `COc1cc2nn([C@@H]3CC[C@]4(CC(=O)N(C)C4)C[C@H]3C)cc2cc1C(=O)Nc1cnc2cccnn12` (relative stereo) [Example 70, rel-2-(5R,7R,8R)-2,7-Dimethyl-3-oxo-2-azaspiro[4.5]decan-8-yl)-N-(imidazo[1,2-b]pyridazin-3-yl)-6-methoxy-2H-indazole-5-carboxamide or rel-2-(5R,7S,8S)-2,7-Dimethyl-3-oxo-2-azaspiro[4.5]decan-8-yl)-N-(imidazo[1,2-b]pyridazin-3-yl)-6-methoxy-2H-indazole-5-carboxamide], the IC50 was determined as 0.4 nM in assay [1] and 9 nM in assay [2].

In the case of `COc1cc2nn([C@H]3CC[C@H](N(C)C(=O)[C@H](C)O)CC3)cc2cc1C(=O)Nc1cnn2cccnc12` [Example 59, 2-((1S,4r)-4-((S)-2-Hydroxy-N-methylpropanamido)cyclohexyl)-6-methoxy-N-(pyrazolo[1,5-a]pyrimidin-3-yl)-2H-indazole-5-carboxamide], the results for the IC50 in assay [1] and in assay [2] were 1.3 nM and 40 nM, respectively.

Take `COc1cc2nn([C@H]3CCC[C@](C)(O)C3)cc2cc1C(=O)Nc1cnn2cccnc12` (single isomer, unassigned) [Example 52]: the figures for the IC50 in assay [1] and in assay [2] were 5.5 nM and 96 nM, respectively.

Consider `COc1cc2nn(C3CCC(N(C)C(=O)[C@H]4C[C@H](O)C4)CC3)cc2cc1C(=O)Nc1cnn2cccnc12` (stereo partly drawn) [Example 97, 2-((1R,4r)-4-((1r,3R)-3-hydroxy-N-methylcyclobutane-1-carboxamido)cyclohexyl)-6-methoxy-N-(pyrazolo[1,5-a]pyrimidin-3-yl)-2H-indazole-5-carboxamide], for which the values for the IC50 in assay [1] and in assay [2] were 0.7 nM and 15 nM, respectively.

With `COc1cc2nn([C@H]3CCC(N(C)C(C)=O)C[C@@H]3C)cc2cc1C(=O)Nc1cnc2cccnn12` (single isomer, unassigned) [Example 35, N-(imidazo[1,2-b]pyridazin-3-yl)-6-methoxy-2-((1S,2S,4R*)-2-methyl-4-(N-methylacetamido)cyclohexyl)-2H-indazole-5-carboxamide], the IC50 in assay [1] was 7.2 nM; in assay [2], 115 nM.

For `COc1cc2nn([C@H]3CC[C@@H](C(=O)N(C)C)CC3)cc2cc1C(=O)Nc1cnc2cccnn12` [Example 3, 2-((1s,4s)-4-(Dimethylcarbamoyl)cyclohexyl)-N-(imidazo[1,2-b]pyridazin-3-yl)-6-methoxy-2H-indazole-5-carboxamide], the IC50 in assay [1] is 8.5 nM; in assay [2] it was 272 nM.

For the molecule `O=C(Nc1cnn2cccnc12)c1cc2cn(C3CCC4(CC3)CC(O)C4)nc2cc1OC1CC1` (single isomer, unassigned) [Example 47, 6-Cyclopropoxy-2-(2-hydroxyspiro[3.5]nonan-7-yl)-N-(pyrazolo[1,5-a]pyrimidin-3-yl)-2H-indazole-5-carboxamide], the IC50 in assay [1] amounted to 0.5 nM; in assay [2], 64 nM.

`COc1cc2nn([C@@H]3CC[C@H](O)[C@@H](C)C3)cc2cc1C(=O)Nc1cnc2cccnn12` (single isomer, unassigned) [Example 83]: the IC50 worked out at 2.1 nM in assay [1] and 34 nM in assay [2].

For `COc1cc2nn([C@H]3CCC(N(C)C(C)=O)C[C@@H]3C)cc2cc1C(=O)Nc1cnn2cccnc12` (single isomer, unassigned) [Example 62, 6-methoxy-2-((1S,2S,4R*)-2-methyl-4-(N-methylacetamido)cyclohexyl)-N-(pyrazolo[1,5-a]pyrimidin-3-yl)-2H-indazole-5-carboxamide], the IC50 in assay [1] amounted to 16 nM; in assay [2], 185 nM.

Turning to `COc1cc2nn([C@H]3CC[C@H](N(C)C(=O)[C@@H]4CC[C@@H](O)C4)CC3)cc2cc1C(=O)Nc1cnn2cccnc12` (relative stereo) [Example 112], the IC50 in assay [1] was 0.7 nM; in assay [2], 21 nM.

Regarding `C[C@@]1(O)CCC[C@H](n2cc3cc(C(=O)Nc4cnn5cccnc45)c(OC4CC4)cc3n2)C1` (relative stereo) [Example 55, rel-6-cyclopropoxy-2-(1S,3R)-3-hydroxy-3-methylcyclohexyl)-N-(pyrazolo[1,5-a]pyrimidin-3-yl)-2H-indazole-5-carboxamide], the half-maximal inhibitory concentration (IC50) in assay [1] is 0.7 nM; in assay [2], 51 nM.

Turning to `COc1cc2nn([C@H]3CC[C@H](N(C)C(=O)C[C@H](C)O)CC3)cc2cc1C(=O)Nc1cnn2cccnc12` [Example 110, 2-((1S,4r)-4-((S)-3-Hydroxy-N-methylbutanamido)cyclohexyl)-6-methoxy-N-(pyrazolo[1,5-a]pyrimidin-3-yl)-2H-indazole-5-carboxamide], the 50% inhibitory concentration (IC50) in assay [1] was 0.9 nM; in assay [2], 16 nM.

On to `COc1cc2nn([C@@H]3CC[C@H](O)[C@H](C)C3)cc2cc1C(=O)Nc1cnc2cccnn12` (single isomer, unassigned) [Example 77], for which the IC50 in assay [1] is 0.7 nM; in assay [2], 14 nM.

For the molecule `COc1cc2nn([C@H]3CC[C@H](O)[C@H](C)C3)cc2cc1C(=O)Nc1cnc2cccnn12` (single isomer, unassigned) [Example 79], the values for the IC50 in assay [1] and in assay [2] were 1 nM and 21 nM, respectively.
